The values that follow come from patent US20260365653A1, “IRREVERSIBLE MUTEGFR INHIBITORS” (Bayer Aktiengesellschaft, priority 2022, published 2026).

Data set [1] deals with BA/F3 (EGFR D770_N771 insSVD T790M) cells. The data set is described as follows: Ba/F3-EGFR-insSVD T790M cell survival assay (Cell Titer-Glo). In kind it is cell-based. Particulars: Ba/F3 EGFR-D770-N771ins_SVD, 48 h, Table 3a, cell survival, Cell Titer-Glo, with 10 ng/ml EGF, without IL-3. As to the method: Cellular Data Description (WT, insSVD, insSVD T790M) 293T cells from ATCC were transfected with pBABEpuro expression constructs for WT EGFR or EGFR-insSVD, or EGFR-insSVD T790M, and pCL-Eco packaging vector using Fugene-6 transfection reagent from Promega. Plates were incubated at 37° C. for 48 h. Retrovirus was harvested by filtering the media supernatant through a 0.45 μm filter.
Ba/F3 cells purchased from DSMZ were grown in RPMI+10% FBS+10 ng/ml IL-3 and infected with filtered retroviral supernatant at a 1:2 dilution. Polybrene was added to a concentration of 8 μg/mL, plates were spun for 90 min, and incubated for 16 h at 37° C. 2 μg/mL puromycin was added to the infected cells 24 h after infection and cells were continually grown in the presence of puromycin and 10 ng/ml IL-3. Following stably expressing Ba/F3 cell lines were generated: Ba/F3-EGFR-WT, Ba/F3-EGFR-insSVD, Ba/F3-EGFR-insSVD T790M, (Ba/F3-vector-control).
For cell survival assays, Ba/F3 cells were grown to a density of 1-2 million cells per mL, spun down and resuspended in media without IL-3, and replated at a concentration of 200,000-500,000 cells per mL. The cells ectopically expressing WT EGFR, EGFR-insSVD, or EGFR-insSVD T790M were plated with 10 ng/ml Millipore Culture grade EGF. The cells ectopically expressing pBABEpuro empty vector were plated with 10 ng/mL IL-3.
2 days later, cells were plated in 50 µL in a 384 well plate at a concentration of 4000 cells per well for cells assayed in the absence of IL-3 and 2000 cells per well for cells assayed in the presence of IL-3. 100 nL of compound was added to each well using a 100 nL pin head, and plates were incubated at 37° C. for 48 h.
Cell viability was measured by adding 20 μL of Cell Titer-Glo Luminescent Cell Viability Reagent diluted 1:3 in PBS. Plates were sealed with Perkin Elmer Top-Seal, inverted several times to mix, and immediately centrifuged at 1000 rpm for 2 min. Plates were incubated in low light conditions for 8-10 min and luminescence was measured.
In general terms: In ATP-based viability assays light output follows the ATP content of the culture.

Data set [2] concerns the target T1, mutEGFR (D770_N771insNPG, T790) (Homo sapiens, UniProt P00533, INS770NPG/T790M).
T1 construct: exact insNPG construct not described; in-house EGFR proteins were N-terminal GST fusions from baculovirus/insect cells (borders R669-A1210 given only for WT, insSVD, insASV)
The data set is described as follows: mutEGFR (D770_N771insNPG, T790) kinase assay. Particulars: Table 2a, D770_N771insNPG. In kind it is biochemical. From the text: The different EGFR proteins used in the biochemical kinase activity inhibition assays were generated inhouse by expression in insect cells using Baculo Virus system and subsequent purification as described in the following paragraphs.
The cDNAs encoding the various protein sequences from human EGFR human (P00533) were optimized for expression in eukaryotic cells and synthesized by the GeneArt Technology at Life Technologies.

A further data set relates to BA/F3 (insSVD) cells. The data set is described as follows: Ba/F3-EGFR-insSVD cell survival assay (Cell Titer-Glo). In kind it is cell-based. Particulars: Mus musculus, BaF3, 48 h, Table 3a, cell survival, Cell Titer-Glo, with 10 ng/ml EGF, without IL-3. The method in brief: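 CellTiter-Glo luminescence read after 48 h compound exposure at 37° C. Cells: IL-3-independent Ba/F3 lines transduced with EGFR-insSVD or EGFR-insSVD T790M, maintained on 10 ng/ml EGF and seeded at 4000 per well.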

The target of data set [3] is T2, mutEGFR (D770_N771insSVD) (Homo sapiens, UniProt P00533, DUP768-770).
T2 construct: GST-EGFR #3 (SVD between D770 and N771); made in house; host or cells: Sf9 insect cells (baculovirus)
T2 sequence (P00533 with tags, fused parts or gaps DUP768-770): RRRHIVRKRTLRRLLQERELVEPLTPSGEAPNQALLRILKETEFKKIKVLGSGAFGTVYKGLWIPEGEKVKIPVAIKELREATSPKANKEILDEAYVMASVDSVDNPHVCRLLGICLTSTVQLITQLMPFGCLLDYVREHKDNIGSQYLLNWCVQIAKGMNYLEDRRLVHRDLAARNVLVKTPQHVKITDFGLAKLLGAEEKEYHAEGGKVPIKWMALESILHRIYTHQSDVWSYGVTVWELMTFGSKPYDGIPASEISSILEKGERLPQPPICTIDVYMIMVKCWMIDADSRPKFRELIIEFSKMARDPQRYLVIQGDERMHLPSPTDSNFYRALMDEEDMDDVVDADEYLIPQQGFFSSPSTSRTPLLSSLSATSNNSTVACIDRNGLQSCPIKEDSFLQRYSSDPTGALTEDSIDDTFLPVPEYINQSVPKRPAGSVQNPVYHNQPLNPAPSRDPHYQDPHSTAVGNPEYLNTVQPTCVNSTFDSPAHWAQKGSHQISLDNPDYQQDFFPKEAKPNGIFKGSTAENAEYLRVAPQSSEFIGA
Put plainly: Exon20-Mutant-EGFR (D770_N771insSVD) kinase assay (TR-FRET). In kind it is biochemical. Particulars: mutEGFR (D770_N771insSVD) kinase assay IC50, Table 2a; D770_N771insSVD; 2 mM ATP. (Time-resolved FRET reads energy transfer from a long-lived donor to a nearby acceptor.)

In data set [4] the test system is mutations in exons 18, 19, and 21 of EGFR. Particulars: cited from earlier work.
The next data set deals with wild-type EGFR. Particulars: cited from earlier work.
Another data set deals with EGFR exon20 insertions. Particulars: patients with EGFR exon20 insertions; cited from earlier work.
For data set [5] the following is noted: background statement on approved drugs; cited from earlier work.
The subject of the next data set is EGFR T790M. Particulars: T790M mutant patients; cited from earlier work.
Data set [6] concerns EGFR exon20 insertion mutations. The conditions noted are these: cited from earlier work.
In data set [7] the test system is classical activating EGFR mutations and brain metastasis. The conditions noted are these: EGFR mutant NSCLC; cited from earlier work.

Some results are limits rather than exact numbers.

T1 sequence (P00533 with tags, fused parts or gaps INS770NPG/T790M limits assumed): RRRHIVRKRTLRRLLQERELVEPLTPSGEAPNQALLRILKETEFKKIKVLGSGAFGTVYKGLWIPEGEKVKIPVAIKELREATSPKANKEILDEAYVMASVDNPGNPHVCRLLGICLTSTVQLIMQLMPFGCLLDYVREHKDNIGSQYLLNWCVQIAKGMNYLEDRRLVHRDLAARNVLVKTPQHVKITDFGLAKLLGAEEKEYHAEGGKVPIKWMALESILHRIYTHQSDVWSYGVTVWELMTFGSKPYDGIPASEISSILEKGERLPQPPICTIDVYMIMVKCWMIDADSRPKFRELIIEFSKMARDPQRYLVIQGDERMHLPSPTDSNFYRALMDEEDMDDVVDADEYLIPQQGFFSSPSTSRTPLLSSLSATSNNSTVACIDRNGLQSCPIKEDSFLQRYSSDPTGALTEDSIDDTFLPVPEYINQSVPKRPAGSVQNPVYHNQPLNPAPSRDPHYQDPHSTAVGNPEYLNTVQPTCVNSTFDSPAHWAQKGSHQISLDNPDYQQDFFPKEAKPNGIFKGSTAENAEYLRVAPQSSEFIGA

Regarding `C=CC(=O)N1CCn2nc(-c3ccc4sccc4c3)c(-c3ccncc3)c2C1` [Example 192, 1-[2-(1-benzothiophen-5-yl)-3-(pyridin-4-yl)-6,7-dihydropyrazolo[1,5-a]pyrazin-5(4H)-yl]prop-2-en-1-one], the IC50 (in general, the concentration needed to halve the response being measured) in [1] is 39.7 nM; in data set [2], 0.0916 nM; in the data set with BA/F3 (insSVD) cells, 148 nM; in [3] it was below 0.0725 nM.
For the compound `C=CC(=O)N1CCn2nc(-c3ccc4cc[nH]c4c3)c(-c3ccncc3)c2C1` [Example 195, 1-[2-(1H-indol-6-yl)-3-(pyridin-4-yl)-6,7-dihydropyrazolo[1,5-a]pyrazin-5(4H)-yl]prop-2-en-1-one], the half-inhibitory concentration (IC50) in data set [1] was found to be 43.3 nM; in data set [2], 0.219 nM; in the data set with BA/F3 (insSVD) cells, 8.9 nM; in data set [3], 0.0825 nM.
For `CN(C)C/C=C/C(=O)Nc1cc2c(Nc3ccc(F)c(Cl)c3)ncnc2cc1O[C@H]1CCOC1` [afatinib], in [4], the durability of response result was “often not durable” and the efficacy in patients result is “effective in patients”. In the data set with wild-type EGFR, the “inhibition of wild-type EGFR” value is “potent inhibitors of wild-type EGFR”. For the same compound, in the data set on EGFR exon20 insertions, the overall survival entry is listed as “significantly reduced”, the progression-free survival result is “significantly reduced” and the response rates result was “particular low response rates”.
On to `C#Cc1cccc(Nc2ncnc3cc(OCCOC)c(OCCOC)cc23)c1` [erlotinib], for which, in data set [4], the durability of response result is reported as “often not durable” and the efficacy in patients result is “effective in patients”. In the data set on EGFR exon20 insertions, the overall survival result is “significantly reduced”, the progression-free survival entry was “significantly reduced” and the response rates entry is given as “particular low response rates”.
For the compound `COc1cc2ncnc(Nc3ccc(F)c(Cl)c3)c2cc1OCCCN1CCOCC1` [gefitinib], in data set [4], the durability of response entry is on record as “often not durable” and the efficacy in patients result is “effective in patients”. Besides, in the data set with EGFR exon20 insertions, the overall survival entry is “significantly reduced”, the progression-free survival result is “significantly reduced” and the response rates result is “particular low response rates”.
On to `C=CC(=O)Nc1cc(Nc2ncc(C(=O)OC(C)C)c(-c3cn(C)c4ccccc34)n2)c(OC)cc1N(C)CCN(C)C` [mobocertinib, reference compound], for which the blood-brain-barrier permeability entry in data set [5] is recorded as “only limited blood-brain-barrier permeability”.
In the case of `C=CC(=O)Nc1cc(Nc2nccc(-c3cn(C)c4ccccc34)n2)c(OC)cc1N(C)CCN(C)C` [osimertinib], in the data set on EGFR T790M, the efficacy in patients entry is reported as “effective in T790M mutant patients”. Moreover, the “activity on EGFR exon20 insertion mutations” value in data set [6] is “only limited activity”. Further, the CNS activity result in data set [7] is on record as “clearly improved CNS activity”.
As to amivantamab, the blood-brain-barrier permeability result in data set [5] is reported as “only limited blood-brain-barrier permeability”.
